Assay results as given in PMC11995724, “Antibiotic target discovery by integrated phenotypic and activity-based profiling of electrophilic fragments” (Cell chemical biology, 2025).
Where a name gives a salt, the structure may show the parent alone.

Experiment: in vitro
Details: human, hek293t cells
Procedure: Mammalian cytotoxicity measurement was performed using Cell Titer-Glo 2.0 Cell Viability Assay (Promega, G9243) according to the manufacturer protocol. In brief, mammalian cells were seeded into 384-well white plates (Greiner, 781080) and incubated at 37°C for one day. Compounds from the Cys-Library were dispensed into the assay plate using epMotion 96. The plates were then incubated at 37°C for two days. An equal volume of Cell Titer-Glo 2.0 reagent was added into each well of the assay plate using epMotion 96 and incubated at 22°C for 10 min, followed by luminescence measurement using a Cytation 5 plate reader (BioTek).

| SMILES | viability at 48 h, 25 µM |
| --- | --- |
| C=CC(=O)NC1CCC(c2nc(CC)no2)CC1 (centres unmarked) [1-O08, N-[4-(3-ethyl-1,2,4-oxadiazol-5-yl)cyclohexyl]prop-2-enamide] | 92.2% |
| O=C(CCl)NCCc1cccc(Cl)c1 [5-O05, 2-chloro-N-[2-(3-chlorophenyl)ethyl]acetamide] | 36.9% |
| C=CC(=O)N(C)CC(=O)NC1CCN(C(=O)c2ccc(C)cc2)CC1 [2-N14, N-methyl-N-({[1-(4-methylbenzoyl)piperidin-4-yl]carbamoyl}methyl)prop-2-enamide] | 66.3% |
| O=C(CCl)NCc1ccccc1C(F)(F)F [6-K10, 2-chloro-N-{[2-(trifluoromethyl)phenyl]methyl}acetamide] | 2.67% |
| COCC(C)NC(=O)C(C#N)=Cc1cc2cc(F)ccc2o1 (centres unmarked) [9-F04, 2-cyano-3-(5-fluoro-1-benzofuran-2-yl)-N-(1-methoxypropan-2-yl)prop-2-enamide] | 99.8% |
| N#CC(=Cc1ccc(Cl)cc1)C(N)=O [8-L21, 3-(4-chlorophenyl)-2-cyanoprop-2-enamide] | 112% |
| N#CC(=Cc1cccc(Oc2ccccc2)c1)C(=O)NC(N)=O [8-D07, {2-cyano-2-[(3-phenoxyphenyl)methylidene]acetyl}urea] | 134% |
| COc1ccc(-c2n[nH]cc2C=C(C#N)C(=O)Nc2ccccc2)cc1 [8-A14, 2-cyano-3-[3-(4-methoxyphenyl)-1H-pyrazol-4-yl]-N-phenylprop-2-enamide] | 76.6% |
| C=CC(=O)NC(c1nccs1)C(F)(F)F (centres unmarked) [2-N07, N-[2,2,2-trifluoro-1-(1,3-thiazol-2-yl)ethyl]prop-2-enamide] | 84.1% |
| O=C(CCl)N1CCN(CC=Cc2ccccc2)CC1 [4-F16, 2-chloro-1-[4-(3-phenylprop-2-en-1-yl)piperazin-1-yl]ethan-1-one hydrochloride] | 0.223% |
| C=CC(=O)N1C2C=C(c3nccn3C)CC1CC2 (centres unmarked) [3-G03, 1-[3-(1-methyl-1H-imidazol-2-yl)-8-azabicyclo[3.2.1]oct-2-en-8-yl]prop-2-en-1-one] | 52.5% |
| C=CCNC(=O)C(C#N)=Cc1ccc(-c2ccc(F)cc2)o1 [8-L20, 2-cyano-3-[5-(4-fluorophenyl)furan-2-yl]-N-(prop-2-en-1-yl)prop-2-enamide] | 114% |
| CCN(CC)S(=O)(=O)c1cc(NC(=O)CCl)ccc1C [4-E09, 2-chloro-N-[3-(diethylsulfamoyl)-4-methylphenyl]acetamide] | 0.544% |
| Cc1ccc([N+](=O)[O-])cc1N1C(=O)C=CC1=O [10-O14, 1-(2-methyl-5-nitrophenyl)-2,5-dihydro-1H-pyrrole-2,5-dione] | 67.2% |
| C=CC(=O)NC12CC3(C)CC(C)(CC(O)(C3)C1)C2 [1-K17, N-(3-hydroxy-5,7-dimethyladamantan-1-yl)prop-2-enamide] | 85.3% |
| O=C(CCl)NC1CCCc2nc(-c3ccccc3)sc21 (centres unmarked) [7-B04, 2-chloro-N-(2-phenyl-4,5,6,7-tetrahydro-1,3-benzothiazol-7-yl)acetamide] | 0.382% |
| CC(=O)NC1(c2nc(C)cs2)CCN(C(=O)C(C)Cl)C1 (centres unmarked) [7-O06, N-[1-(2-chloropropanoyl)-3-(4-methyl-1,3-thiazol-2-yl)pyrrolidin-3-yl]acetamide] | 114% |
| CC(Cl)C(=O)NC1CCCN(S(=O)(=O)N2CCOCC2)C1 (centres unmarked) [6-L03, 2-chloro-N-[1-(morpholine-4-sulfonyl)piperidin-3-yl]propanamide] | 111% |
| CC(Cl)C(=O)NC1(C(=O)N(C)C)CC(F)(F)C1 (centres unmarked) [7-K20, 1-(2-chloropropanamido)-3,3-difluoro-N,N-dimethylcyclobutane-1-carboxamide] | 83.7% |
| CC(c1ccc(C(F)(F)F)c(Cl)c1)N(C)C(=O)CCl (centres unmarked) [7-F14, 2-chloro-N-{1-[3-chloro-4-(trifluoromethyl)phenyl]ethyl}-N-methylacetamide] | 0.626% |
| O=C(CCl)Nc1cc(-c2ccccc2)nn1-c1ccccc1 [4-A20, 2-chloro-N-(1,3-diphenyl-1H-pyrazol-5-yl)acetamide] | 0.296% |
| C=CC(=O)NC1(c2ncon2)CCOCC1 [3-K22, N-[4-(1,2,4-oxadiazol-3-yl)oxan-4-yl]prop-2-enamide] | 66.9% |
| Cc1cc(C(=O)CCl)c(C)n1CCc1ccccc1 [10-B18, 2-chloro-1-[2,5-dimethyl-1-(2-phenylethyl)-1H-pyrrol-3-yl]ethan-1-one] | 0.0262% |
| Cc1ccc(NC(=O)N2CCSSCC2)c(C)c1 [10-F11, N-(2,4-dimethylphenyl)-1,2,5-dithiazepane-5-carboxamide] | 102% |
| CC(Cl)C(=O)NCc1cccc(N2C(=O)NC3(CCCC3)C2=O)c1 (centres unmarked) [7-O18, 2-chloro-N-[(3-{2,4-dioxo-1,3-diazaspiro[4.4]nonan-3-yl}phenyl)methyl]propanamide] | 103% |
| C=CC(=O)N1CCC(C(=O)N2CCC(c3ncco3)CC2)CC1 [2-B06, 1-{4-[4-(1,3-oxazol-2-yl)piperidine-1-carbonyl]piperidin-1-yl}prop-2-en-1-one] | 78.3% |
| Cc1cn2c(C=C(C#N)C(=O)Nc3c(C)cccc3C)c(C)nc2s1 [9-N19, 2-cyano-3-{2,6-dimethylimidazo[2,1-b][1,3]thiazol-5-yl}-N-(2,6-dimethylphenyl)prop-2-enamide] | 94.4% |

| SMILES | viability at 48 h, 25 µM |
| --- | --- |
| CC(Cl)C(=O)NC1CCN(CC(=O)Nc2ccccc2)CC1 (centres unmarked) [7-E13, 2-chloro-N-{1-[(phenylcarbamoyl)methyl]piperidin-4-yl}propanamide] | 85.2% |
| C=CC(=O)NCC1CCN(S(=O)(=O)C(F)(F)F)CC1 [1-A03, N-[(1-trifluoromethanesulfonylpiperidin-4-yl)methyl]prop-2-enamide] | 83.3% |
| CCOc1ccc(-n2c(C)cc(C(=O)CCl)c2C)cc1 [10-K08, 2-chloro-1-[1-(4-ethoxyphenyl)-2,5-dimethyl-1H-pyrrol-3-yl]ethan-1-one] | 0.112% |
| CCOC(=O)c1ccc(NC(=O)CCl)cc1 [4-E17, ethyl 4-(2-chloroacetamido)benzoate] | 0.753% |
| CC(=O)NC1Cc2ccccc2N(C(=O)CCl)C1 (centres unmarked) [5-M20, N-[1-(2-chloroacetyl)-1,2,3,4-tetrahydroquinolin-3-yl]acetamide] | 1.81% |
| C=CC(=O)NC1CCSC(C)C1 (centres unmarked) [1-J06, N-(2-methylthian-4-yl)prop-2-enamide] | 78.4% |
| CCn1c(-c2ccccc2)c(C(=O)CCl)c2ccccc21 [10-E12, 2-chloro-1-(1-ethyl-2-phenyl-1H-indol-3-yl)ethan-1-one] | 0.509% |
| C=CC(=O)N1CCC(C(=O)NCc2nnc(C(C)C)n2C)CC1 [3-C16, N-{[4-methyl-5-(propan-2-yl)-4H-1,2,4-triazol-3-yl]methyl}-1-(prop-2-enoyl)piperidine-4-carboxamide] | 78.5% |
| O=C(CCl)Nc1ccc(Cl)c(S(=O)(=O)N2CCOCC2)c1 [6-K13, 2-chloro-N-[4-chloro-3-(morpholine-4-sulfonyl)phenyl]acetamide] | 0.541% |
| CC(=O)N(c1ccccc1)c1nc(C=C(C#N)C(=O)NC2CC2)cs1 [9-A12, 2-cyano-N-cyclopropyl-3-[2-(N-phenylacetamido)-1,3-thiazol-4-yl]prop-2-enamide] | 123% |
| NC(=O)c1coc(C(=O)CCl)c1 [10-C05, 5-(2-chloroacetyl)furan-3-carboxamide] | 60.9% |
| C=CC(=O)N(Cc1cc(Cl)ccc1OC)C1CCCOCC1 (centres unmarked) [2-C07, N-[(5-chloro-2-methoxyphenyl)methyl]-N-(oxepan-4-yl)prop-2-enamide] | 95.3% |
| O=C(CCl)C1CCCC2(CC2)C1 (centres unmarked) [10-E11, 2-chloro-1-{spiro[2.5]octan-5-yl}ethan-1-one] | 79.6% |
| CC(Cl)C(=O)Nc1c(Cl)cccc1Cl (centres unmarked) [4-B16, 2-chloro-N-(2,6-dichlorophenyl)propanamide] | 128% |
| O=C(CCl)NC(c1ccc(F)c(Cl)c1)C(F)(F)F (centres unmarked) [7-D16, 2-chloro-N-[1-(3-chloro-4-fluorophenyl)-2,2,2-trifluoroethyl]acetamide] | 0.544% |
| C#CCN(C(=O)c1ccc(NC(=O)C=C)cc1)C1CCCCC1 [3-D13, N-cyclohexyl-4-(prop-2-enamido)-N-(prop-2-yn-1-yl)benzamide] | 15.9% |
| C=CC(=O)N(Cc1ccc(OC)cc1)[C@@H]1CCCC[C@H]1O [2-M05, N-[(1R,2R)-2-hydroxycyclohexyl]-N-[(4-methoxyphenyl)methyl]prop-2-enamide] | 97.6% |
| N#CC(=Cc1ccc(C#N)cc1)C(=O)Nc1ccccc1Cl [9-O17, N-(2-chlorophenyl)-2-cyano-3-(4-cyanophenyl)prop-2-enamide] | 131% |
| C=CC(=O)N1CCC(C(=O)NCCC2(O)CCCOC2)CC1 (centres unmarked) [2-B04, N-[2-(3-hydroxyoxan-3-yl)ethyl]-1-(prop-2-enoyl)piperidine-4-carboxamide] | 70% |
| Cc1nn(Cc2ccccc2)c(C)c1CNC(=O)CCl [4-O11, N-[(1-benzyl-3,5-dimethyl-1H-pyrazol-4-yl)methyl]-2-chloroacetamide] | 1.47% |
| COc1ccc(Cl)cc1N1C(=O)C=CC1=O [10-K10, 1-(5-chloro-2-methoxyphenyl)-2,5-dihydro-1H-pyrrole-2,5-dione] | 81.3% |
| CCOc1ccc(C(=O)CCl)cc1 [10-F12, 2-chloro-1-(4-ethoxyphenyl)ethan-1-one] | 1.95% |
| O=C(CCl)NC1CCC(c2nc(-c3ccccc3)n[nH]2)CC1 (centres unmarked) [6-G19, 2-chloro-N-[4-(3-phenyl-1H-1,2,4-triazol-5-yl)cyclohexyl]acetamide] | 39.3% |
| O=C(CCl)NCc1ccccc1OC(F)(F)F [4-L21, 2-chloro-N-{[2-(trifluoromethoxy)phenyl]methyl}acetamide] | 0.623% |
| N#CC(=Cc1cc(F)ccc1F)C(=O)Nc1ccc(Cl)cc1Cl [8-O08, 2-cyano-N-(2,4-dichlorophenyl)-3-(2,5-difluorophenyl)prop-2-enamide] | 68.1% |
| C=CC(=O)N1CCC(C(=O)NCCc2cc[nH]n2)CC1 [3-E07, 1-(prop-2-enoyl)-N-[2-(1H-pyrazol-3-yl)ethyl]piperidine-4-carboxamide] | 34.2% |
